Consider 4 molecules from patent publication EP2796042A1, “Compounds promoting plant growth” (Albert-Ludwigs-Universität Freiburg, priority 2013, dated 2014).

Data set [1] has as its system Arabidopsis thaliana. As to the kind of experiment: Root growth and development of seedlings on AM medium with exogenous compound. The class given is in vivo. Conditions: for SULF inhibition on plant development: 100µM compound with 100µM sulfanilamide (Fig. 10F), 6 day-old; for plant-root waving: 100µM supplemented media (Fig. 10B). As for the experimental part: To get more insights into the pABA role on plant development, plants were grown in presence of pABA. […] Arabidopsis root waving occurs when plants are grown at the surface of an agar plate that is slightly tilted.

The next data set concerns ADCS-RNAi seedlings. As to the kind of experiment: Rescue of root growth arrest after conditional down regulation of GAT-ADCS (estradiol-inducible RNAi). The class given is in vivo, Arabidopsis thaliana. Conditions: EST-induced; 50µM compound for 6 days (Fig. 9C).
In a further data set the test system is Lex::UGT75B. Briefly: Rescue of root defects of estradiol-induced Lex::UGT75B plants. It counts as in vivo, Arabidopsis thaliana. The source says:
Plant growth relies on auxin gradients maintained by series of auxin influx carriers of the AUXIN RESISTANT 1/ Like AUX1 (AUX/LAX) family, efflux facilitators such as ABCB/multi-drug resistance/P-glycoprotein (ABCB/MDR/PGP), and PIN-FORMED (PIN) proteins. PIN-proteins subcellular localization is highly dynamic and influenced by various internal and external signals, thereby directing and redirecting the intercellular fluxes of auxin[25]. […] During plant response to gravity, auxin transport through AtPIN2 plays a crucial role and pin2 mutants are unable to establish lateral auxin gradient after gravistimulation and therefore are agravitropic.

Data set [2] relates to Arabidopsis seedlings (Wild type Col 0). As to the kind of experiment: Safener activity on seedlings grown in presence of inhibitory concentrations of auxin (IAA). Conditions: for root growth in the presence of inhibitory concentrations of IAA: 100 µM compound, 2 µM IAA. The class given is in vivo, Arabidopsis thaliana. As to the method: It was tested whether benzoic acid derivatives can counteract the activity of natural auxins (IAA) (Figure 17 and Figure 18). The experiments were carried out as described for Figure 10.

In data set [3] the test system is Arabidopsis thaliana. As to the kind of experiment: Plants growing in agar plates supplemented with pABA. The class given is in vivo. Conditions: 200 µM pABA in agar plates, vs untreated plants. The source says:
(§1) They were 3 replicates for each experiment.

In a further data set the test system is Lycopersicum esculentum. The data set is described as above. It counts as in vivo. Conditions: 200 µM pABA in agar plates, vs untreated plants.
Excerpt: as §1

Data set [4] has as its system Arabidopsis thaliana. As to the kind of experiment: Plants growing in soil and watered or sprayed with a solution of pABA. The class given is in vivo. As to the method:
Arabidopsis plants were grown from seeds in pots in a mixture of soil and vermiculite and watered with tap water for 15 days. Then watering was stopped for 48h until soil looked dried at the surface of the pot. A total of 4 trails containing 51 pots each were divided into 2 parts. […] The other trails were sprayed with solutions described above. […] Plants growing in soil and watered or sprayed with a solution containing pABA

A further data set deals with Zea mays. Briefly: Plants growing in soil and watered with a solution containing pABA. It counts as in vivo. Conditions: watered with 1 mM pABA; n=10. As to the method: Maize seeds were germinated in Petri® dishes containing deionized-water-humidified Whatman® paper. Germinations of equal size were transferred in pots (one per pot) containing a mixture of soil and vermiculite and watered with tap water for 30 days. Then watering was stopped for 48h until soil looked dried at the surface of the pot.

Another data set deals with Poplar explants. Briefly: Induction of adventitious roots on poplar explants. The class given is in vivo. Conditions: 200 µM pABA. The source says:
Since pABA can stimulate adventitious development in Arabidopsis, we tested whether pABA could also promotes adventitious development on poplar, a commercially important tree.

Data set [5] concerns Arabidopsis seedlings. Briefly: Root response to gravity after rotating agar plates by 135°. The class given is in vivo, Arabidopsis thaliana. Conditions: plates rotated to 135° for 3h (Fig. 10G).
Another data set has as its system adcs-2. As to the kind of experiment: Homozygous adcs2 rescue experiment with pABA. The class given is in vivo, Arabidopsis thaliana. Conditions: opened siliques transplanted on medium supplemented with pABA. The source says:
adcs T-DNA mutants (SALK_095283 and SALK_034215) were in Arabidopsis thaliana (L.) Heynh., ecotype Columbia (Col-0) background and ugt75b (AY027263) in Landsberg erecta (Ler).

For data set [6], the system named is Arabidopsis seedlings. Briefly: Activity of benzoic acid derivatives on root growth. It counts as in vivo, Arabidopsis thaliana. Conditions: AM supplemented with 100 µM compound.
For data set [7] the following is noted: cited from earlier work.

In the case of `Nc1nc2c(c(=O)[nH]1)N(C=O)C(CNc1ccc(C(=O)N[C@@H](CCC(=O)O)C(=O)O)cc1)CN2` (stereo partly drawn) [5-FTHF, 5-formyl-tetrahydrofolate, reference compound], in the data set on Arabidopsis thaliana [1], the “SULF inhibition on plant development” value is “reverted” and the plant-root waving entry was “not”. The “phenocopy of the activity of pABA” value in the data set with Arabidopsis thaliana [1] (applied at similar concentrations as pABA) is recorded as “did not phenocopy the activity of pABA”. Also, the “rescue of arrested roots” value with ADCS-RNAi seedlings was “could be rescued”. Besides, the “root growth recovery upon strong UGT75B induction” value with Lex::UGT75B (20µM EST, 400µM compound (Fig. 14)) is recorded as “very poorly”. In addition, the “effect of supplementation on growth defects of β-estradiol-induced UGT75B plants” value with Lex::UGT75B (weak induction 0.1µM EST, 200µM 5-FTHF (Fig. 13E)) is given as “had no effect”. Moreover, in data set [2], the “root growth in the presence of inhibitory concentrations of IAA” value is “fully restored root growth”.

On to `CCN(CC)CCOC(=O)c1ccc(N)cc1` [Procaine, procaine, reference compound], for which the “root growth in the presence of inhibitory concentrations of IAA” value in [2] is recorded as “fully restored root growth”.

Take `Nc1cccc(C(=O)O)c1` [mABA, 3-aminobenzoic acid]: the “root growth in the presence of inhibitory concentrations of IAA” value in data set [2] is given as “fully restored root growth”.

With `Nc1ccc(C(=O)O)cc1` [pABA, 4-aminobenzoic acid], in the data set on Arabidopsis thaliana [3] (after 10 days), the adventitious roots entry is given as “more adventitious roots” and the lateral roots entry is “more lateral roots”. Moreover, the root hairs result in the data set on Arabidopsis thaliana [3] (six days after germination) was “longer root hairs”. Further, in the data set with Lycopersicum esculentum (after 10 days), the adventitious roots result is “more adventitious roots” and the lateral roots result is listed as “more lateral roots”. In addition, the root hairs result with Lycopersicum esculentum (six days after germination) was “longer root hairs”. Besides, the “greater fresh weight than plant sprayed with only water” value with Arabidopsis thaliana [4] (foliar application of 1 mM pABA) was 17.54%. Besides, in the data set on Arabidopsis thaliana [4] (sprayed with 1 mM pABA, n=51), the “fresh weight of Arabidopsis aerial parts, Sprayed” value is recorded as 0,62 ± 0,02. For the same molecule, the “fresh weight of Arabidopsis aerial parts, Watered” value in the data set on Arabidopsis thaliana [4] (watered with 1 mM pABA, n=51) was 1,08 ± 0,03. Besides, the “induced fresh weight of Arabidopsis aerial parts on average” value in the data set on Arabidopsis thaliana [4] (watering with 1 mM pABA, vs water) came to 3.84%. In addition, in the data set with Zea mays, the Number of leaves is 6.58 ±0.14 and the Root weight came out at 7.85 ± 0.49 g. Moreover, in the data set with Poplar explants (n=20), the Adventitious root number came to 6.15, the “Entire plant fresh weight” value amounted to 216 ± 23.69 mg, the Number of leaves was found to be 8.09±0.59 and the Roots fresh weight amounted to 68.68 mg. Further, in the data set on Poplar explants (presumably increase vs control), the “Roots fresh weight, percentage in brackets” value came to 46%. Moreover, the “more adventitious than control” value in the data set on Poplar explants (vs control) was found to be 129%. Further, in the data set with Arabidopsis thaliana [1], the “SULF inhibition on plant development” value was “reverted” and the plant-root waving entry is recorded as “suppressed”. Moreover, the “development of LR and AR” value in the data set on Arabidopsis thaliana [1] (100µM supplemented media (Fig. 10C)) is “induces development of LR and AR”. For the same molecule, the root hair length result in the data set with Arabidopsis thaliana [1] (pABA treatment (Fig. 10D-E)) is on record as “increases root hair length”. Moreover, in the data set on Arabidopsis thaliana [1] (wild type seedlings on AM, aerial part not affected), the “Concentrations that inhibited root growth and promoted lateral and adventitious roots development as well as root hair growth” value is “greater than 50 µM”. Also, the “gravitropic response of Arabidopsis primary root” value in the data set with Arabidopsis seedlings [5] was “increases gravitropic response”. Further, the “development of embryos arrested at the globular stage” value in the data set with adcs-2 is listed as “could develop further”. For the same molecule, the “rescue of arrested roots” value with ADCS-RNAi seedlings was “could be rescued”. Besides, in data set [2] (1 µM IAA + 100µM pABA), the “growth-inhibitory effects of IAA” value was “could antagonize”. Also, in [2], the “root growth in the presence of inhibitory concentrations of IAA” value was “fully restored root growth”. For the same molecule, the root growth-promoting activity result with Arabidopsis seedlings [6] is “significant root growth-promoting activity”. The pKa value entry in data set [7] was “about 4.9”.
